# Reference: ChEMBL document CHEMBL4371083, “Synthesis, biological evaluation and 3D-QSAR studies of 1,2,4-triazole-5-substituted carboxylic acid bioisosteres as uric acid transporter 1 (URAT1) inhibitors for the treatment of hyperuricemia associated with gout” (Bioorg Med Chem Lett, 2019)
# pIC50: −log10 of the molar value.
# Target: T1, Solute carrier family 22 member 12 (Homo sapiens, UniProt Q96S37)
# T1 sequence (Q96S37 whole entry): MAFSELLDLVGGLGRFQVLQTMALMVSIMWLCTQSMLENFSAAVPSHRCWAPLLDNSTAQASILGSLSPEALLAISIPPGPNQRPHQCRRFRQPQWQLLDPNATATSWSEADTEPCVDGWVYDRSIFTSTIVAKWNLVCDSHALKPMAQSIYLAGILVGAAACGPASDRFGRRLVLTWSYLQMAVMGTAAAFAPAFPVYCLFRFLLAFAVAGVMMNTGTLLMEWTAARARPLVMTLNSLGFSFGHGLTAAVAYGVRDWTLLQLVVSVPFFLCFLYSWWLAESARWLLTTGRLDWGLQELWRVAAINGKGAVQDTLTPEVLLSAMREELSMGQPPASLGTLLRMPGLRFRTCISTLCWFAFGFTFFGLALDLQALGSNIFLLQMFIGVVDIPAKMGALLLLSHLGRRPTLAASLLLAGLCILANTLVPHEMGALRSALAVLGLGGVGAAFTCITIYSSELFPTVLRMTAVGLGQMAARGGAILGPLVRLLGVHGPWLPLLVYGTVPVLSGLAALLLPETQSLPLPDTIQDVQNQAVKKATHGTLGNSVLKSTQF
# Assay: Inhibition of human URAT1 expressed in HEK293 cells assessed as reduction in [8-14C]uric acid uptake
# Format: cell-based
row,Compound,pIC50
1,O=S(=O)(CSc1nnc(Br)n1Cc1ccc(Br)c2ccccc12)Nc1ccc(C(F)(F)F)nc1,4.99
2,O=S(=O)(CSc1nnc(Br)n1Cc1ccc(Br)c2ccccc12)Nc1ccc(Cl)nc1Cl,5.78
3,NS(=O)(=O)CSc1nnc(Br)n1Cc1ccc(Br)c2ccccc12,3.44
4,O=C(CSc1nnc(Br)n1Cc1ccc(Br)c2ccccc12)NO,6.19
5,O=S(=O)(CSc1nnc(Br)n1Cc1ccc(Br)c2ccccc12)Nc1ccc(Br)nc1Br,5.27
6,O=S(=O)(CSc1nnc(Br)n1Cc1ccc(Br)c2ccccc12)Nc1cncc(C(F)(F)F)c1,5.20
7,O=S(=O)(CSc1nnc(Br)n1Cc1ccc(Br)c2ccccc12)Nc1cc(Cl)cnc1Cl,5.55
8,Brc1ccc(Cn2c(Br)nnc2SCc2nnn[nH]2)c2ccccc12,5.49
9,O=S(=O)(O)CSc1nnc(Br)n1Cc1ccc(Br)c2ccccc12,4.84
10,Oc1c(Br)cc(CSc2nnc(Br)n2Cc2ccc(Br)c3ccccc23)cc1Br,3.92

# Second part, the compound after the results:
row,pIC50,Compound
1,5.81,O=S(=O)(CSc1nnc(Br)n1Cc1ccc(Br)c2ccccc12)Nc1ccc(F)nc1
2,6.55,O=S(=O)(CSc1nnc(Br)n1Cc1ccc(Br)c2ccccc12)Nc1cccnc1Br
3,5.29,O=S(=O)(CSc1nnc(Br)n1Cc1ccc(Br)c2ccccc12)Nc1cccnc1Cl
4,4.80,O=S(=O)(CSc1nnc(Br)n1Cc1ccc(Br)c2ccccc12)Nc1ccccc1
5,7.49,O=S(=O)(CSc1nnc(Br)n1Cc1ccc(Br)c2ccccc12)Nc1cccnc1
6,4.98,O=S(=O)(CSc1nnc(Br)n1Cc1ccc(Br)c2ccccc12)Nc1cnccc1I
7,5.66,O=S(=O)(CSc1nnc(Br)n1Cc1ccc(Br)c2ccccc12)Nc1ccc(Br)nc1
8,5.39,COc1ncccc1NS(=O)(=O)CSc1nnc(Br)n1Cc1ccc(Br)c2ccccc12
9,5.71,O=S(=O)(CSc1nnc(Br)n1Cc1ccc(Br)c2ccccc12)Nc1ccc(Cl)nc1
